Measured values published in patent US8686150B2 (Sanofi, priority 2011, dated 2014).

Target: T1, human full-length recombinant PKC βII (Homo sapiens, UniProt P05771)
T1 construct: Active human full-length recombinant PKC βII; purchased Invitrogen GmbH, Darmstadt, Germany
Assay: Determination of PKC βII inhibition (Caliper mobility-shift kinase assay, Fluorescein-RFARKGSLRQKNV peptide substrate)
Format: biochemical
Conditions: example compounds at a final concentration of 1.14 μM (±0.15 μM)
Method: Determination of PKC βII Inhibition
PKC βII Inhibition was Determined According to the Following Protocol:
Active human full-length recombinant PKC βII and the peptide substrate, Fluorescein-RFARKGSLRQKNV, were purchased from Invitrogen GmbH, Darmstadt, Germany. Adenosine-5′-triphosphate (ATP), bovine serum albumine (BSA), dimethylsulphoxide (DMSO), 4-(2-hydroxyethyl)piperazine-1-ethanesulfonic acid (Hepes), Triton X-100, 1,2-Dioleoyl-sn-glycerol (DAG), L-G-Phosphatidyl-L-serine (PS), calcium chloride (CaCl2), and Pluronic F-68 were purchased from Sigma-Aldrich, Munich, Germany. Magnesium chloride, 1 M sodium hydroxide solution, 1M hydrochloric acid solution and EDTA were obtained from Merck Biosciences, Darmstadt, Germany.
Test compounds were diluted to three times the test concentration in buffer 1 (30 mM Hepes-NaOH, pH 7.4, 0.01% Pluronic F-68 and 3% (v/v) DMSO). The PKC enzyme was diluted to a concentration of 30 ng/ml in buffer 2 (30 mM Hepes-NaOH, pH 7.4, 15 mM MgCl2, 150 μM CaCl2, 150 μg/ml PS, 60 μg/ml DAG, and 0.045% (w/v) Triton X-100). The peptide substrate and ATP were diluted to concentrations of 3 μM and 120 μM, respectively, in buffer 2. Two μl of the compound solution were mixed with 2 μl of the diluted enzyme in a 384-well small volume microtiter plate (Greiner, Bio-One, Frickenhausen, Germany), and the kinase reaction was initiated by addition of 2 μl of the solution containing peptide substrate and ATP. After 60 min incubation at 32° C., the reaction was stopped by addition of 20 μl of a solution containing 130 mM Hepes-NaOH, pH 7.4. 0.0195% (v/v) Brij-35, 6.5 mM EDTA. 0.13% chip coating reagent 3 (Caliper Lifescience Inc, Hopkinton, Mass.) and 6.5% (v/v) DMSO. Phosphorylation of the substrate peptide was then detected on a Caliper 3000 instrument essentially as described by Pommereau et al (J. Biomol. Screening 2004, 9(5), 409-416). Separation conditions were as follows: Pressure −0.8 psi, upstream voltage −3000 V, downstream voltage −800 V. Positive controls (buffer 1 instead of compound) and negative controls (buffer 1 instead of compound and buffer 2 instead of kinase solution) were run in parallel on each plate. Fractional turnover (R) was determined as the height of the peak of the phosphorylated peptide product divided by the sum of the unphosphorylated substrate and phosphorylated product peak heights. Percent-inhibition values for the test compounds were determined using the formula % Inhibition=100*(1−(Rcompound−Rnegative control)/(Rpositive control−Rnegative control).
In the following table % inhibition values observed with example compounds at a final concentration of 1.14 μM (±0.15 μM) are listed: […]

T1 sequence (P05771 1-673 isoform P05771-2): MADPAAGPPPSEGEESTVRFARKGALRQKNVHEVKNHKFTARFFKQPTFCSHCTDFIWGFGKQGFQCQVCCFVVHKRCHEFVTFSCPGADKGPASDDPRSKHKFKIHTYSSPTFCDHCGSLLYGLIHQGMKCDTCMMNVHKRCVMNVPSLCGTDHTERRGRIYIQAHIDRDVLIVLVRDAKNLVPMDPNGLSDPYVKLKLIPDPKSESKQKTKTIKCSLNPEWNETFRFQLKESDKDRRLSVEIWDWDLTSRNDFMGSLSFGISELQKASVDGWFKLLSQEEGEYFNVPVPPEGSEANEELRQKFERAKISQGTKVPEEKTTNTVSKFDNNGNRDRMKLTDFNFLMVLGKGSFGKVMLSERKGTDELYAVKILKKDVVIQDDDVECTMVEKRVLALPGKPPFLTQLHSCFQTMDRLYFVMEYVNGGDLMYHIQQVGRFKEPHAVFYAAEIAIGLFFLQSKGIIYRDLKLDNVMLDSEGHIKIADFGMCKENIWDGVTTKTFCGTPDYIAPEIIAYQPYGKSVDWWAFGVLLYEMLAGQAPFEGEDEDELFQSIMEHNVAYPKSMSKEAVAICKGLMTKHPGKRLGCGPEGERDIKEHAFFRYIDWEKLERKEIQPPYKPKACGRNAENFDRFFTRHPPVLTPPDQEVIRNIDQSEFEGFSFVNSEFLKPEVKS

| Compound | inhibition at 1.14 µM | % Inhibition |
| --- | --- | --- |
| CCc1n[nH]c2nc(-c3ccc(O)cc3)cc(C(=O)N3CCC4(CC3)CNC4)c12 [Example 171, (2,7-Diaza-spiro[3.5]non-7-yl)-[3-ethyl-6-(4-hydroxy-phenyl)-1H-pyrazolo[3,4-b]pyridin-4-yl]-methanone] | 77% |  |
| Cc1n[nH]c2nc(-c3ccc(O)c(F)c3)cc(C(=O)N3CC[C@H](N)C3)c12 [Example 292, ((S)-3-Amino-pyrrolidin-1-yl)-[6-(3-fluoro-4-hydroxy-phenyl)-3-methyl-1H-pyrazolo[3,4-b]pyridin-4-yl]-methanone] | 77% |  |
| Cc1n[nH]c2nc(-c3ccc(O)cc3)cc(C(=O)NC3CC4CCC(C3)N4C)c12 [Example 201, 6-(4-Hydroxy-phenyl)-3-methyl-1H-pyrazolo[3,4-b]pyridine-4-carboxylic acid ((3R)-8-methyl-8-aza-bicyclo[3.2.1]oct-3-yl)-amide] |  | 55% |
| O=C(c1cc(-c2ccc(O)cc2)nc2[nH]nc(C(F)(F)F)c12)N1CCC2(CC1)CNC2 [Example 405, (2,7-Diaza-spiro[3.5]non-7-yl)-[6-(4-hydroxy-phenyl)-3-trifluoromethyl-1H-pyrazolo[3,4-b]pyridin-4-yl]-methanone] | 48% |  |
| Cc1n[nH]c2nc(-c3ccc(O)cc3)cc(C(=O)N3CCCNCC3)c12 [Example 75, [1,4]Diazepan-1-yl-[6-(4-hydroxy-phenyl)-3-methyl-1H-pyrazolo[3,4-b]pyridin-4-yl]-methanone] | 89% |  |
| Cc1n[nH]c2nc(-c3ccc(O)cc3)cc(C(=O)N[C@@H]3CCC(=O)NC3)c12 [Example 208, 6-(4-Hydroxy-phenyl)-3-methyl-1H-pyrazolo[3,4-b]pyridine-4-carboxylic acid ((R)-6-oxo-piperidin-3-yl)-amide] | 88% |  |
| Cc1n[nH]c2nc(-c3ccc(O)cc3)cc(C(=O)N3CC4CCC(C3)N4)c12 [Example 111, 3,8-Diaza-bicyclo[3.2.1]oct-3-yl-[6-(4-hydroxy-phenyl)-3-methyl-1H-pyrazolo[3,4-b]pyridin-4-yl]-methanone] | 97% |  |
| CCc1n[nH]c2nc(-c3ccc(O)cc3)cc(C(=O)N(C)C3CCN(C)CC3)c12 [Example 174, 3-Ethyl-6-(4-hydroxy-phenyl)-1H-pyrazolo[3,4-b]pyridine-4-carboxylic acid methyl-(1-methyl-piperidin-4-yl)-amide] | 34% |  |
| Cc1n[nH]c2nc(-c3ccc(O)cc3F)cc(C(=O)N3CC(C)(C)NCC34CCCC4)c12 [Example 437, (8,8-Dimethyl-6,9-diaza-spiro[4.5]dec-6-yl)-[6-(2-fluoro-4-hydroxy-phenyl)-3-methyl-1H-pyrazolo[3,4-b]pyridin-4-yl]-methanone] | 99% |  |
| Cc1n[nH]c2nc(-c3ccc(O)cc3F)cc(C(=O)N3CCNCC3C(F)(F)F)c12 (stereo not drawn) [Example 60, [6-(2-Fluoro-4-hydroxy-phenyl)-3-methyl-1H-pyrazolo[3,4-b]pyridin-4-yl]-(2-trifluoromethyl-piperazin-1-yl)-methanone] | 98% |  |
| Cc1n[nH]c2nc(-c3ccc(O)cc3)cc(C(=O)NCCN(C)C)c12 [Example 38, 6-(4-Hydroxy-phenyl)-3-methyl-1H-pyrazolo[3,4-b]pyridine-4-carboxylic acid (2-dimethylamino-ethyl)-amide] | 80% |  |
| Cc1n[nH]c2nc(-c3ccc(O)cc3)cc(C(=O)N3CCNCC3c3cccnc3)c12 (stereo not drawn) [Example 374, [6-(4-Hydroxy-phenyl)-3-methyl-1H-pyrazolo[3,4-b]pyridin-4-yl]-(2-pyridin-3-yl-piperazin-1-yl)-methanone] | 99% |  |
| Cc1n[nH]c2nc(-c3ccc(O)cc3)cc(C(=O)N3CCNCC3c3ccc(C(C)C)cc3)c12 (stereo not drawn) [Example 94, [6-(4-Hydroxy-phenyl)-3-methyl-1H-pyrazolo[3,4-b]pyridin-4-yl]-[2-(4-isopropyl-phenyl)-piperazin-1-yl]-methanone] | 90% |  |
| Cc1n[nH]c2nc(-c3ccc(O)cc3)cc(C(=O)NC(CN(C)C)c3ccccc3)c12 (stereo not drawn) [Example 132, 6-(4-Hydroxy-phenyl)-3-methyl-1H-pyrazolo[3,4-b]pyridine-4-carboxylic acid (2-dimethylamino-1-phenyl-ethyl)-amide] | 72% |  |
| Cc1n[nH]c2nc(-c3ccc(O)cc3)cc(C(=O)N3CCN(C(C)C)CC3)c12 [Example 36, [6-(4-Hydroxy-phenyl)-3-methyl-1H-pyrazolo[3,4-b]pyridin-4-yl]-(4-isopropyl-piperazin-1-yl)-methanone] | 40% |  |
| Cc1n[nH]c2nc(-c3ccc(O)cc3)cc(C(=O)N3CC4CCCCN4CC3C)c12 (stereo not drawn) [Example 285, [6-(4-Hydroxy-phenyl)-3-methyl-1H-pyrazolo[3,4-b]pyridin-4-yl]-(3-methyl-octahydro-pyrido[1,2-a]pyrazin-2-yl)-methanone] | 76% |  |
| CCc1n[nH]c2nc(-c3ccc(O)cc3)cc(C(=O)NC3CN4CCC3CC4)c12 (stereo not drawn) [Example 159, 3-Ethyl-6-(4-hydroxy-phenyl)-1H-pyrazolo[3,4-b]pyridine-4-carboxylic acid (1-aza-bicyclo[2.2.2]oct-3-yl)-amide] | 55% |  |
| Cc1n[nH]c2nc(-c3ccc(O)c(F)c3)cc(C(=O)N3CCC(N)CC3)c12 [Example 304, (4-Amino-piperidin-1-yl)-[6-(3-fluoro-4-hydroxy-phenyl)-3-methyl-1H-pyrazolo[3,4-b]pyridin-4-yl]-methanone] | 91% |  |
| Cc1n[nH]c2nc(-c3ccc(O)cc3F)cc(C(=O)N3CC(C)(C)NCC3C)c12 (stereo not drawn) [Example 427, [6-(2-Fluoro-4-hydroxy-phenyl)-3-methyl-1H-pyrazolo[3,4-b]pyridin-4-yl]-(2,5,5-trimethyl-piperazin-1-yl)-methanone] | 99% |  |
| Cc1n[nH]c2nc(-c3ccc(O)cc3)cc(C(=O)N3CCC4(CCNCC4)CC3)c12 [Example 236, (3,9-Diaza-spiro[5.5]undec-3-yl)-[6-(4-hydroxy-phenyl)-3-methyl-1H-pyrazolo[3,4-b]pyridin-4-yl]-methanone] | 84% |  |
| Cc1cc(O)ccc1-c1cc(C(=O)N2CCNCC2c2cccc(F)c2F)c2c(C)n[nH]c2n1 (stereo not drawn) [Example 139, [2-(2,3-Difluoro-phenyl)-piperazin-1-yl]-[6-(4-hydroxy-2-methyl-phenyl)-3-methyl-1H-pyrazolo[3,4-b]pyridin-4-yl]-methanone] | 99% |  |
| Cc1n[nH]c2nc(-c3ccc(O)cc3)cc(C(=O)N3CCN[C@@H](C)C3)c12 [Example 190, [6-(4-Hydroxy-phenyl)-3-methyl-1H-pyrazolo[3,4-b]pyridin-4-yl]-((S)-3-methyl-piperazin-1-yl)-methanone] | 101% |  |
| Cc1n[nH]c2nc(-c3ccc(O)c(F)c3)cc(C(=O)N(C)C3CCNCC3)c12 [Example 335, 6-(3-Fluoro-4-hydroxy-phenyl)-3-methyl-1H-pyrazolo[3,4-b]pyridine-4-carboxylic acid methyl-piperidin-4-yl-amide] | 61% |  |
| CCc1n[nH]c2nc(-c3ccc(O)cc3)cc(C(=O)N3CC[C@H](N(C)C)C3)c12 [Example 177, ((S)-3-Dimethylamino-pyrrolidin-1-yl)-[3-ethyl-6-(4-hydroxy-phenyl)-1H-pyrazolo[3,4-b]pyridin-4-yl]-methanone] | 50% |  |
| Cc1n[nH]c2nc(-c3ccc(O)c(F)c3)cc(C(=O)NC3CN4CCC3CC4)c12 (stereo in doubt) [Example 317, (S)-6-(3-Fluoro-4-hydroxy-phenyl)-3-methyl-1H-pyrazolo[3,4-b]pyridine-4-carboxylic acid (1-aza-bicyclo[2.2.2]oct-3-yl)-amide] | 68% |  |
| Cc1n[nH]c2nc(-c3ccc(O)cc3F)cc(C(=O)N3[C@@H]4CC[C@H]3CNC4)c12 [Example 417, 3,8-Diaza-bicyclo[3.2.1]oct-8-yl-[6-(2-fluoro-4-hydroxy-phenyl)-3-methyl-1H-pyrazolo[3,4-b]pyridin-4-yl]-methanone] | 78% |  |
| O=C(c1cc(-c2ccc(O)cc2)nc2[nH]nc(C(F)(F)F)c12)N1CCC2(CCNCC2)CC1 [Example 411, (3,9-Diaza-spiro[5.5]undec-3-yl)-[6-(4-hydroxy-phenyl)-3-trifluoromethyl-1H-pyrazolo[3,4-b]pyridin-4-yl]-methanone] | 24% |  |
